# Measurements as given in PMC12022973, “Proteomimetic Strategy for the Modulation of Intrinsically Disordered Protein MYC” (Journal of the American Chemical Society, 2025).
# Starred links: 1 amine or outer side, 2 acyl side, 3 side chain; linkers in the order of their positions; H or OH if unused. Positions of bridges follow the written chain, without caps; N, C: chain ends. Residues, ends and D or L forms follow the SMILES beside them. Chains are numbered I, II in the order given. X1 = c1cc(C[*:1])ccc1COCc1ccc(C[*:2])cc1
# How the values were obtained:
# [1] = molecular target: T1, recombinant human MYC^353–437 protein (His6-MYC^353–437) (Homo sapiens, UniProt P01106); assay: Fluorescence polarization direct binding of fluorescein-labeled CHDs to His6-MYC353-437; details: FP direct binding; 15 nM FITC-labeled peptide; His6-MYC serial dilutions from 10 μM; 1X PBS, 1 mM DTT, 5% glycerol, 0.1% pluronic acid, pH 6.7; 25 °C; triplicate; MYC aggregates above 5 μM; read-out: Binding Affinity MYC^353-436, Kd
# T1 construct: recombinant human MYC^353–437 protein; made in house; host or cells: E. coli BL21(DE3), pET151-D-TOPO-cMyc vector
# T1 sequence (P01106 368-452): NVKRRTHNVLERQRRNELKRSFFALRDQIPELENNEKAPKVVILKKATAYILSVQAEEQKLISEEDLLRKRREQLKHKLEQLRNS
# Description: pET151-D-TOPO-cMyc vector was kindly provided by Dr. Edward Prochownik from the
# Department of Pediatrics at UPMC Children’s Hospital of Pittsburgh. Expression and purification
# of Myc353-437 were performed using an established protocol with minor modifications.7 BL21(DE3)
# cells were used to express recombinant Myc353-437 protein. Bacteria were grown at 37 °C to OD600
# of 0.8 followed by 1 mM IPTG induction and 16-18h growth at RT. Cells were harvested via
# centrifugation at 4,000 rpm at 4 °C and the pellet was resuspended in 10 mL of lysis buffer (8 M
# urea, 100 mM NaH2PO4, 10 mM Tris HCl, pH 8) supplemented with protease inhibitor cocktail
# (PierceTM Protease Inhibitor Tablets) and benzonase nuclease. Suspensions were sonicated on
# ice using a Branson Cell Disruptor 200 and centrifuged at 12,000 rpm for 45 min at 4 °C. Clarified
# lysate was applied to a column containing pre-equilibrated HisPur Ni-NTA Superflow Agarose
# (ThermoFisher Scientific) for overnight at 4 °C. The resin beads were washed with 10 mL of
# additional lysis buffer followed by three washes of 10 mL wash buffer (8 M urea, 100 mM
# NaH2PO4, 10 mM Tris HCl, 10 mM imidazole). The target protein was eluted with elution buffer (8
# M urea, 100 mM NaH2PO4, 10 mM Tris HCl, 250 mM imidazole) and buffer exchanged into 150
# mM NaCl, 50 mM Tris HCl, 5% glycerol, pH 6.7. Protein was concentrated by ultra-filtration (3000
# MWCO; Amicon Ultra-15 Centrifugal Filter units from EMD Millipore) followed by TEV cleavage
# (1:100 w/w of protease to target protein) in 150 mM NaCl, 50 mM Tris HCl, 5% glycerol, pH 6.7
# for 24 hrs at 4 °C. The cleaved protein is further purified by reverse-phase HPLC (gradient 10-60
# acetonitrile/water with 0.1% TFA over 35 min) to remove TEV protease and un-cleaved protein.
# Purified Myc353-437 was lyophilized and stored at -20 °C. Myc353-437 identity was characterized by
# (§1) Fluorescence Polarization Binding Assay
# (§2) The relative affinities of FITC-CHDMax-1 to His6-Myc353-436 and full-length His6-Max were
# (§3) determined using fluorescence polarization-based direct binding assay. The polarization
# (§4) experiments were performed using a DTX 880 Multimode Detector (Beckman) at 25 °C with
# (§5) excitation and emission wavelengths of 485 and 525 nm, respectively. Each polarization
# (§6) experiment was performed in a 96-well round bottom plate (Greiner) in assay buffer: 1X PBS, 1
# (§7) mM DTT, 5% glycerol, 0.1% pluronic acid, pH 6.7. The binding affinity (KD) values reported for
# (§8) each peptide are from experiments performed in triplicate. Raw values were fit to a sigmoidal
# (§9) dose-response nonlinear regression model in GraphPad Prism 6.0.
# (§10) All binding experiments with FITC-labeled peptides to His6-Myc353-436 or His6-Max were performed
# (§11) under the same conditions. Briefly, serial dilutions of His6-Myc353-436 and His6-Max were made
# (§12) from 10 μM into 15 nM of FITC-labeled peptide in assay buffer. KD was determined using the
# (§13) KD1 = (RT*(1-FSB) + LST*FSB2)/FSB-LST
# (§14) RT = Total concentration of His6-Myc353-436 or His6-Max
# (§15) LST = Total concentration of FITC-labeled peptide
# (§16) FSB = Fraction of bound FITC-labeled peptide
# [2] = molecular target: T2, full-length His6-Max (MAX^1-160) (Homo sapiens, UniProt P61244); assay: Fluorescence polarization direct binding to His6-MAX; details: FP direct binding; 15 nM FITC-labeled peptide; His6-MAX from 10 μM; 1X PBS, 1 mM DTT, 5% glycerol, 0.1% pluronic acid, pH 6.7; 25 °C
# T2 construct: N.B. (MAX^1-160)
# T2 sequence (P61244 whole entry): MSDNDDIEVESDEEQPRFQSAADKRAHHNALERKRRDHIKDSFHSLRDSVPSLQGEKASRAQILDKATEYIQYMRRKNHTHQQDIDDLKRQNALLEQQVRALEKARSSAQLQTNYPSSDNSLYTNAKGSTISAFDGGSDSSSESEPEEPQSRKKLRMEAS
# Description: as §1, §2, §3, §4, §5, §6, §7, §8, §9, §10, §11, §12, §13, §14, §15, §16
structure (smiles),measurement,setting,value
CC[C@H](C)[C@H](NC(=O)[C@H](CCCCN)NC(=O)[C@H](CCC(=O)O)NC(=O)[C@H](CCCNC(=N)N)NC(=O)[C@H](CC(C)C)NC(C)=O)C(=O)N[C@@H](C)C(=O)N[C@H](C(=O)N[C@@H](CC(C)C)C(=O)N[C@@H](CCC(N)=O)C(=O)N[C@@H](Cc1c[nH]c2ccccc12)C(=O)N[C@@H](CSCc1ccc(COCc2ccc(CSC[C@H](NC(=O)[C@H](CC(C)C)NC(=O)[C@H](CCC(=O)O)NC(=O)[C@H](CCC(=O)O)NC(=O)[C@@H](NC(=O)[C@H](CCC(=O)O)NC(=O)[C@H](Cc3c[nH]c4ccccc34)NC(=O)[C@H](CCC(N)=O)NC(=O)[C@H](Cc3c[nH]cn3)NC(=O)[C@@H](NC(=O)[C@H](CCC(=O)O)NC(=O)[C@H](CC(N)=O)NC(=O)[C@H](CCCCN)NC(=O)[C@H](CCCNC(=N)N)NC(=O)[C@H](CCCNC(=N)N)NC(=O)[C@H](CC(C)C)NC(C)=O)[C@@H](C)O)[C@@H](C)CC)C(N)=O)cc2)cc1)C(=O)N[C@H](C(=O)N[C@@H](CCC(=O)O)C(=O)N[C@@H](CCC(=O)O)C(=O)N[C@@H](CC(C)C)C(=O)N[C@@H](CCCNC(=N)N)C(=O)N[C@@H](CCCCN)C(N)=O)[C@@H](C)CC)[C@@H](C)O [CHD^Max-1] (I: Ac-LREKIATLQWCIEELRK-NH2 / II: Ac-LRRKNETHQWEIEELC-NH2; linker I:11-II:16 via X1),Kd,[1],0.35 ± 0.017 µM
same,"CHD^Max-1 Binding Affinity, Kd (MAX^1-160)",[2],N.B.
